Experimental data reported in US6723753B2, “Substituted n-benzyl-n-phenyl aminoalcohol compounds useful for inhibiting cholesteryl ester transfer protein activity” (Pharmacia Corporation, priority 2002, dated 2004).

Molecular target: T1, CETP (Homo sapiens, UniProt P11597)
T1 sequence (P11597 18-493): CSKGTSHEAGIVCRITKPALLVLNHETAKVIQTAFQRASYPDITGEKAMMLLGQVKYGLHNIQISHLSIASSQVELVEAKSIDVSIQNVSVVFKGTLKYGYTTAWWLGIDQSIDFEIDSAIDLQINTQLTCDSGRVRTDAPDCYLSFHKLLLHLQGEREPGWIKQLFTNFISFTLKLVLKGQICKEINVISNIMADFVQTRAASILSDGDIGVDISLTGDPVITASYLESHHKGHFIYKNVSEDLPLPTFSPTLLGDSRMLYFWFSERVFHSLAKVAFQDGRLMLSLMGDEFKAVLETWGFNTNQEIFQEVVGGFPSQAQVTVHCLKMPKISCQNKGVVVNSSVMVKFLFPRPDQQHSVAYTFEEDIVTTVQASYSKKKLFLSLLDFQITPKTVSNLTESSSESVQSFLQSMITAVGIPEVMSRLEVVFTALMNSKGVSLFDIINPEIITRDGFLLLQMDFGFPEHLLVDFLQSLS
Assay: Assay of CETP Inhibition using Purified Components (Reconstituted Buffer Assay)
Format: biochemical
Parameters: made in house; host or cells: CHO cells (serum-free conditioned medium)
Conditions: Inhibition of CETP activity in reconstituted buffer assay; transfer of [3H]CE from HDL to LDL; read-out: IC50
Outline: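 Transfer of radiolabeled cholesteryl ester from HDL to LDL was run for 2 h at 37 °C in pH 7.4 Tris buffer with 1% BSA, using purified CHO-expressed human CETP. Precipitated LDL radioactivity, measured by scintillation after dextran sulfate/MgCl2 precipitation and filtration, yielded the IC50.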

IC50 [µM]	SMILES
> 50	OC(CN(Cc1cccc(OC(F)(F)C(F)F)c1)c1cccc(OCc2nccn2Cc2ccccc2)c1)C(F)(F)F (stereo not shown) [Example 430]
12	OC(CN(Cc1cccc(OC(F)(F)C(F)F)c1)c1cccc(OCc2csc3ccc(Cl)cc23)c1)C(F)(F)F (stereo not shown) [Example 431]
5.6	OC(CN(Cc1cccc(OC(F)(F)C(F)F)c1)c1cccc(OCc2ccncc2)c1)C(F)(F)F (stereo not shown) [Example 433]
> 50	Nc1ccc(COc2cccc(N(Cc3cccc(OC(F)(F)C(F)F)c3)CC(O)C(F)(F)F)c2)cc1 (stereo not shown) [Example 434, 3-[[3-[(4-aminophenyl)methoxy]phenyl][[3-(1,1,2,2-tetrafluoro-ethoxy)phenyl]methyl]amino]-1,1,1-trifluoro-2-propanol]
6.4	Nc1cccc(COc2cccc(N(Cc3cccc(OC(F)(F)C(F)F)c3)CC(O)C(F)(F)F)c2)c1 (stereo not shown) [Example 434B, 3-[[3-[(3-aminophenyl)methoxy]phenyl][[3-(1,1,2,2-tetrafluoro-ethoxy)-phenyl]methyl]amino]-1,1,1-trifluoro-2-propanol]
2.2	CC(C)(C)c1ccc(Oc2cccc(N(Cc3cccc(OC(F)(F)C(F)F)c3)CC(O)C(F)(F)F)c2)cc1 (stereo not shown) [Example 437]
1.2	N#Cc1ncccc1Oc1cccc(N(Cc2cccc(OC(F)(F)C(F)F)c2)CC(O)C(F)(F)F)c1 (stereo not shown) [Example 441]
1.1	O=C(O)c1cncc(Oc2cccc(N(Cc3cccc(OC(F)(F)C(F)F)c3)CC(O)C(F)(F)F)c2)c1 (stereo not shown) [Example 442]
> 50	OC(CN(Cc1cccc(OC(F)(F)C(F)F)c1)c1cccc(Oc2cc(F)ccn2)c1)C(F)(F)F (stereo not shown) [Example 443]
1.5	OC(CN(Cc1cccc(OC(F)(F)C(F)F)c1)c1cccc(Oc2ncccc2C(F)(F)F)c1)C(F)(F)F (stereo not shown) [Example 444]
2.8	OC(CN(Cc1cccc(OC(F)(F)C(F)F)c1)c1cccc(Oc2ccc(C(F)(F)F)cn2)c1)C(F)(F)F (stereo not shown) [Example 445]
1.2	OC(CN(Cc1cccc(OC(F)(F)C(F)F)c1)c1cccc(Oc2ccc(Br)cn2)c1)C(F)(F)F (stereo not shown) [Example 446]
3.9	OC(CN(Cc1cccc(OC(F)(F)C(F)F)c1)c1cccc(Oc2cncnc2)c1)C(F)(F)F (stereo not shown) [Example 449]
1.1	CCNc1ccc(Oc2cccc(N(Cc3cccc(OC(F)(F)C(F)F)c3)CC(O)C(F)(F)F)c2)cc1 (stereo not shown) [Example 450B, 3-[[3-[4-(ethylamino)phenoxy]phenyl][[3-(1,1,2,2-tetrafluoroethoxy)phenyl]methyl]amino]-1,1,1-trifluoro-2-propanol]
13	OC(CN(Cc1cccc(OC(F)(F)C(F)F)c1)c1cccc(-c2ccccn2)c1)C(F)(F)F (stereo not shown) [Example 451, 3-[[3-(2-pyridinyl)phenyl][[3-(1,1,2,2-tetrafluoroethoxy)phenyl]methyl]amino]-1,1,1-trifluoro-2-propanol]
2.7	OC(CN(Cc1cccc(OC(F)(F)C(F)F)c1)c1cccc(-c2cccs2)c1)C(F)(F)F (stereo not shown) [Example 452]
8	OC(CN(Cc1cccc(OC(F)(F)C(F)F)c1)c1cccc(-c2ccco2)c1)C(F)(F)F (stereo not shown) [Example 453]
4.6	OC(CN(Cc1cccc(OC(F)(F)C(F)F)c1)c1cccc(-c2cccnc2)c1)C(F)(F)F (stereo not shown) [Example 454]
22	Cc1cccnc1-c1cccc(N(Cc2cccc(OC(F)(F)C(F)F)c2)CC(O)C(F)(F)F)c1 (stereo not shown) [Example 455]
1.5	CCOC(=O)c1cccc(N(Cc2cccc(OC(F)(F)C(F)F)c2)CC(O)C(F)(F)F)c1 (stereo not shown) [Example 456B, ethyl 3-[[[3-(1,1,2,2-tetra-fluoroethoxy)phenyl]methyl](3,3,3-trifluoro-2-hydroxypropyl)amino]-benzoate]

SMILES	IC50 [µM]
O=C(O)c1cccc(COc2cccc(N(Cc3cccc(OC(F)(F)C(F)F)c3)CC(O)C(F)(F)F)c2)c1 (stereo not shown) [Example 435, 3-[[3-[[[3-(1,1,2,2-tetrafluoroethoxy)phenyl]methyl](3,3,3-trifluoro-2-hydroxypropyl)amino]phenoxy]methyl]benzoic Acid]	> 50
O=C(c1cccc(N(Cc2cccc(OC(F)(F)C(F)F)c2)CC(O)C(F)(F)F)c1)N1CCCCC1 (stereo not shown) [Example 456]	9.2
